Patent US20110230367A1, “Amphiphilic Peptides Promoting Production of Target miRNA and Method of Regulating Production of Target miRNA” (SNU R&DB FOUNDATION, priority 2009, published 2011)
Entries after “also recorded” stand apart in the source; their conditions may differ. Like-named read-outs stand apart in the source and are kept apart here.

Key:
[1] = target: HBV (hairpin RNA); experiment: Dissociation constant by competitive fluorescence anisotropy with rhodamine-rev peptide probe; assay type: binding; conditions: Table 6
Description: (§1) The binding affinity between the peptide synthesized in <Example 1> and pre-miRNA from <Example 2> were measured by fluorescence anisotropy using competitive binding method. A rev peptide with rhodamine attached at the N-terminal was used as a fluorescent probe and LS-55 luminescence spectrometer from Perkin-Elmer was use for analysis. A constant temperature of 20° C. was maintained by a water bath. The fluorescent intensity was measured by of 200 nM of rhodamine-rev peptide was measured with an excitation wavelength at 550 nm (band path 10 nm) and detection at 580 nm (band path 10 nm). The integration time […]. Each experimental value is the mean value of 5 measurements. A 20 mM of HEPES{4-(2-hydroxyethyl)-1-piperazineethanesulfonic acid} buffer (pH 7.5) containing 140 mM NaCl, 5 mM KCl and 1 mM MgCl2 was used for measuring the dissociation constant. The dissociation constant was determined according to the Mathematical Formula 1 and using Kaledia graph.
(§2) A and Ao are the fluorescence anistropy in the presence or absence of RNA, whereas ΔA is the difference between these two values. [RNA]0 and [Rh-rev]0 are initial concentrations of RNA and rev peptide binding with rhodamine.
(§3) According the method described in <Example 3>, the dissociation constant between second generation peptide and 2 pre-miRNAs synthesized from <Example 2> was determined using fluorescent polarization detection method and fluorescent probe molecule.

[2] = target: IRES (hairpin RNA); experiment: as above; assay type: binding; conditions: Table 6
Description: as §1, §2, §3

[3] = target: pre-let7a-1; experiment: as above; assay type: binding; conditions: for Discrimination ratio pre-let7a-1 (in parenthesis): Kd against other RNA (HBV, IRES, other miRNAs)/Kd against target miRNA
Description: as §1, §2, §3

[4] = test system: pre-miR16-1; experiment: as above; assay type: binding; conditions: for Discrimination ratio pre-miR16-1 (in parenthesis): Kd against other RNA/Kd against target miRNA
Description: as §1, §2, §3

[5] = target: pre-miR24-1; experiment: as above; assay type: binding; conditions: Table 6; for Discrimination ratio pre-miR24-1 (in parenthesis): Kd against other RNA/Kd against target miRNA
Description: as §1, §2, §3

[6] = test system: recombinant human Dicer processing pre-let7a-1; experiment: Dicer activity assay in the presence of peptide, substrate pre-let7a-1; assay type: biochemical; conditions: for initial reaction velocity (V0) of Dicer, normalized to no peptide: 400 nM peptide, pre-let7a-1 substrate, FIG. 2; for initial reaction velocity of Dicer: FIG. 3
Description: Two types of pre-miRNA (pre-let7a-1, pre-miR16-1) used as the substrate for the Dicer enzyme activity assay was ordered and manufactured by ST Pharm Co., Ltd (FIG. 1). For Dicer activity assay, the 5′ end of the synthesized pre-miRNA was labeled with ^32p isotope. Two pmole of each pre-miRNA was isotope labeled with […] of [g-^32P]ATP (New England Biolabs) using 10 units of T4 polynucleotide kinase (New England Biolabs). Total volume of 10 μl was isotope labeled for 1 hr at 37° C. The isotope labeled RNA obtained after the reaction was purified using G-25 Sephadex column (Sigma). The purified substrate was used for measuring Dicer enzyme activity. Total reaction mixture of 30 μl containing 1 nM of isotope labeled pre-miRNA and 0.001 u/μl of recombinant human Dicer (Genlantis, CA, USA) were incubated at 37° C. in 24 mM 4-(2-hydroxyethyl)-1-piperazineethanesulfonic acid, HEPES) buffer system containing 200 mM NaCl, 0.04 mM EDTA, 1 mM ATP and 2.5 mM MgCl2(pH 8.0). After reacting for 0, 10, 30, […], 3 μl of each reaction mixture was mixed with 5 μl of RNA gel loading buffer {95% formamide, 10 mM ethylenediaminetetraacetic acid (EDTA), 0.05% FF (xylene cyanol FF)} and incubated for 5 min at 65° C. The amount of the reaction product was determined by gel running in 15% polyacrylamide gel containing 7M urea, and then the initial reaction velocity (V0) from each reaction was compared. The initial reaction velocity (V0) of the enzyme is the reaction velocity of the initial linear time (until 30 min). Each initial velocity was normalized with the initial velocity from each substrate condition without peptide treatment. The initial reaction velocity of Dicer for pre-let7a-1 and pre-miR16-1 without peptide treatment were […] and 0.018 fmole/min, respectively. Each of the initial reaction velocity is a mean data of more than 3 measurements, and the standard deviation is shown as error bars.

[7] = test system: mature let7a-1 in HCT116 cells; experiment: Production of mature miRNA in HCT116 cells by northern blotting; assay type: cell-based; conditions: 2 μM peptide, 3 hrs, FIG. 4
Description: The HCT116 cell was purchased from American Type Culture Collection (ATCC) and was cultured in RPMI1640 medium at 37° C., under 5% CO2. Total RNA was extracted using Trizol reagent (Invitrogen) according to the manufactures recommended protocol.
The change in RNA amount was analyzed by culturing the cells with 2 μM concentration of peptide 2b or peptide 2c and with lipofectamine.
HCT116 cells were treated with 2 μM of peptide 2b, 2c, 1e or 0.2 μg/ml of doxorubicin for 3 hrs before analyzing the production of mature miRNA in total RNA using northern blotting. The 18S rRNA band intensity was used as the loading control. […] Peptide 1e was used as a negative control. Decade marker (Ambion) and 10˜20 μg of total RNA were separated by using 12.5% polyacrylamide gel containing 7M urea in 20 mM of 3-(N-morpholino)propanesulfonic acid (MOPS)-NaOH(pH 7.0) buffer at 350V for 2 hrs. RNA blotting was performed by chemical cross-linking method. Each of the separated RNA was transferred with the neutral nylon membrane (Hybond NX, Amersham/Pharmacia) and crosslinked to the membrane using 1-ethyl-3-(3-dimethylaminopropyl)carbodiimide (EDC). The membrane was prehybridized with the hybridization buffer (Clontech, CA, USA) containing 50 μl of 10 mg/ml of salmon sperm DNA. Next, the isotope labeled probe DNA which is complementary to the miRNA sequence was hybridized for 2 hrs in the same buffer condition.
The probe was isotope labeled with 25 μCi of [γ-^32P] ATP (New England Biolabs) and 5 units of polynucleotide kinase (New England Biolabs). The probe was ethanol precipitated and dissolved in 50 μl of DEPC treated water for use. The membrane was washed twice for 30 min with 200 ml of wash buffer containing 0.3 M NaCl, 0.03 M sodium citrate and 0.05% sodium dodecyl sulfate (SDS)(pH 7.0), then washed twice for 15 min with 200 ml of wash buffer containing 0.015 M NaCl, 0.0015 M sodium citrate and 0.1% SDS(pH 7.0). The membrane was exposed on the phosphorimager screen and each of the band intensity was detected by FLA-3000 and analyzed by using MultiGauge Ver. 3.0 software (Fuji Photo).

[8] = Table 5, second generation peptides, read-out: Kd value against pre-let7a-1
[9] = Table 6, read-out: Kd pre-let7a-1
[10] = Table 5, second generation peptides, read-out: Kd value against pre-miR16-1
[11] = Table 6, read-out: Kd pre-miR16-1

Sequence | Kd [1] [nM] | Kd [2] [nM] | Kd [3, 8] [nM] | Discrimination ratio pre-let7a-1 (in parenthesis) ([3]; Table 6) | Kd [3, 9] [nM] | binding with pre-miR16-1 [4] | Kd [4, 10] [nM] | Discrimination ratio pre-miR16-1 (in parenthesis) ([4]; Table 6) | Kd [4, 11] [nM] | Kd [5] [nM] | Discrimination ratio pre-miR24-1 (in parenthesis) [5] | initial reaction velocity (V0) of Dicer, normalized to no peptide [6] | level of mature let7a-1 [7] | binding with pre-let7a-1 [3] | discrimination ratio for pre-let7a-1 ([3]; mean Kd against all hairpin pre-miRNA/Kd against target pre-miRNA) | hill slope ([6]; FIG. 3, concentration dependence, pre-miRNA substrate not named) | EC50 ([6]; FIG. 3, concentration dependence, pre-miRNA substrate not named, read-out: EC50 of initial velocity of Dicer in processing pre-miRNA) [nM] | initial reaction velocity of Dicer ([6]; peptide concentration higher than 100 nM) | initial reaction velocity of Dicer ([6]; peptide concentration higher than 1,000 nM)
WKKLLKLLKKWLKLAG [Peptide 2c, Ac-WKKLLKLLKKWLKLAG, 14] | 0.46 | 0.46 | 0.15 | 2.8 | 0.15 | first and second strongest binding | 0.27 | 1.4 | 0.27 | 0.88 | 0.41 | increase in initial reaction velocity; also recorded: accelerated | increased |  |  |  |  |  | 
WKKLLKWLKKLLKLAG [Peptide 2b, Ac-WKKLLKWLKKLLKLAG, 13] | 0.9 | 1 | 0.067 | 11 | 0.067 | first and second strongest binding | 0.22 | 1.1 | 0.22 | 0.43 | 1.5 | highest acceleration; also recorded: profound increase | significant increase | strong binding; also recorded: strongest binding | 11 | 3.5 | 940 | significant increase; also recorded: rapid increase | decrease
